In publication PMC11773334, “Preparation and pharmacokinetic evaluation of a sertraline-methylpropyphenazone prodrug: a comparative metabolic study on the plasma and brain tissues of rats using LC-MS/MS analysis” (RSC Advances, 2025):

Key:
[1] = QC sample stability in spiked rat plasma; assay type: in vitro ADME
Procedure: The working solutions were prepared separately for obtaining a 100 μg mL^−1 concentration. Calibration standards were generated from the working solution by spiking control plasma (100 μL) with a standard mixture to get the final concentrations: 25, 100, 250, 500, 1000, and 2000 ng mL^−1 plasma of each analyte. […]
Solid-phase extraction (SPE) was performed on the calibration standards prepared in plasma, quality control (QC) samples, rat plasma, and brain homogenate samples using Chromabond ® C8-100 mg columns (Macherey Nagel, Düren, Germany). […] The SPE column was filled with 25 μL of 0.1% aqueous ammonia solution, 100 μL plasma or brain homogenate, and 50 μL IS (20 ng μL^−1). […] The eluant was dried with nitrogen gas at room temperature, then reconstituted in 300 μL methanol, vortex, and transferred to a 0.9 mL total recovery autosampler vial, and dried with nitrogen gas.
(§1) The linearity of the targeted analytes was evaluated at six concentration levels spanning the range of 25–2000 ng mL^−1, and the calibration parameters were calculated. The method's accuracy was determined by calculating the estimated value for each QC sample compared with the actual concentration. The precision was assessed by analysis of QC samples at different concentrations (25.0, 500.0, and 2000.0 ng mL^−1) on separate days. The lowest point in the calibration curve was defined as the lower limit of quantification (LLOQ), which was determined to be at an acceptable accuracy and precision. The recovery of the extractions was evaluated by comparing the areas under the peak of the extracted samples with a non-extracted standard solution. Also, the matrix effect was evaluated by comparing the plasma sample spiked with the analyte with corresponding standard solutions at the same concentrations. Finally, the stability of the sample was investigated at three concentration levels, applying the same chromatographic conditions. The stability tests included long-term, short-term, and freeze-thaw stability.

[2] = cited from earlier work
[3] = Stability of standard solutions under storage conditions; assay type: physicochemical; settings: room temperature for 6 h and 4 °C for 12 h
Procedure: as §1
Standard solutions were maintained at room temperature for 6 h and 4 °C for 12 h, and then analyzed using the developed method. […] Recoveries remained above 89%, and the standard deviation (SD%) values were below 3%, as detailed in Table 3.

rat serotonin (ST) = test: Analysis of serotonin in brain homogenate (ELISA sandwich kit); settings: SER: within 1 to 3 h after oral administration, Fig. 6
Procedure: Wistar rats weighing 250 ± 30 g were included in the study. […] Phosphate-buffered saline (PBS) was utilized as a matrix to homogenize the brain samples. Both the brain and blood samples were frozen at −80 °C until their analysis.
An enzyme-linked immunosorbent assay (ELISA) sandwich kit was used in this study as it is known that it can accurately quantify rat serotonin (ST) in serum, plasma, cell culture supernatants, ascites, tissue homogenates, and other biological fluids. In the assay, first the plate was pre-coated with a rat ST antibody. When ST is present in the sample, it binds to the antibodies on the wells. Next, a biotinylated rat ST antibody was added, which binds to the ST in the sample. Streptavidin-HRP was then added, binding to the biotinylated ST antibody. After incubation, the unbound Streptavidin-HRP was washed away. […] The reaction was terminated by adding an acidic stop solution, and then the absorbance was measured at 450 nm.

[4] = Rat plasma pharmacokinetics after oral administration (LC-MS/MS, noncompartmental model)
Procedure: Sildenafil was used as an internal standard (IS). […] The MS conditions were set as follows: the ESI temperature was 330 °C, nitrogen gas flow rate was 11 L min^−1, nebulizer pressure was 35 psi, and capillary voltage was 4000 V. The MS settings were optimized for each compound, including the fragmentor voltage, dwell time (sec), and collision energy voltage. […] A gradient elution program was applied using a mobile phase composed of methanol (solvent A) and 0.7 g L^−1 ammonium acetate trihydrate in water with 0.1% formic acid (solvent B). […] The mobile phase was pumped at a flow rate of 0.4 mL min^−1. The equilibration duration was 7.0 min. The sample injection volume was 5 μL. The total running time for the analysis was 20 min. […] The SPE column was conditioned with 1 mL methanol and 2 mL of 0.1% aqueous ammonia solution. […] The SPE column was gently clicked to mix the solution, then allowed to elute just below the stationary phase surface before being trapped for 1 min in the stationary phase. The column was then washed with 1 mL of 0.1% ammonia solution, forcing nitrogen to eject water from the SPE column. The column was connected to a new port via a clean test tube, and the analytes were eluted using 3 mL ethyl acetate: n-hexane (2 : 1, v/v) and 1 mL methanol. […] The residue was dissolved in 50 μL methanol, and a 5 μL volume was injected for LC-MS/MS analysis. […] The results were expressed as the mean ± SD. The evaluated parameters included Cmax (maximum concentration), Tmax (time to reach Cmax), t1/2 (half-life), Ke (elimination rate constant), AUC (area under the concentration–time curve), AUMC (area under the first moment curve), and MRT (mean residence time). The data were analyzed using Kinetica® software, employing a noncompartmental analysis approach. […] The pharmacokinetic parameters between the groups were compared using an unpaired two-tailed t-test. Statistical significance was defined as P < 0.05.

[5] = Concentration in rat brain homogenate after oral administration (LC-MS/MS); assay type: in vivo, Wistar rats; settings: 0.5 to 192 h after oral SER-MP
Procedure: Sildenafil was used as an internal standard (IS). […] The gradient program was configured as follows: 68% A from 0 to 2 min, raised to 96% A at 4.0 min, sustained at 96% A until 13 min, and then reverting back to 68% A at 13.1 min. […] The equilibration duration was 7.0 min. The sample injection volume was 5 μL.

[6] = rat plasma, oral SER-MP 16.0 mg kg^−1 (equimolar to SER dose), analyte SER-MP or released metabolite

Compound | Average recovery (%) ± SD, Autosampler (25 °C/24 h) ([1]; 50.0 ng mL^−1) | Average recovery (%) ± SD, Freeze-thaw (−20 °C/3 cycles) ([1]; 50.0 ng mL^−1) | Average recovery (%) ± SD, Autosampler (25 °C/24 h) ([1]; 500.0 ng mL^−1) | Average recovery (%) ± SD, Freeze-thaw (−20 °C/3 cycles) ([1]; 500.0 ng mL^−1) | Average recovery (%) ± SD, Autosampler (25 °C/24 h) ([1]; 2000.0 ng mL^−1) | Average recovery (%) ± SD, Freeze-thaw (−20 °C/3 cycles) ([1]; 2000.0 ng mL^−1) | Stability of standard solutions (change in peak area) [3] | further results
CC(C)c1c(CO)n(C)n(-c2ccccc2)c1=O [3-OHMP, 3-hydroxymethylpropyphenazone] | 96.80 ± 0.98% | 94.39 ± 2.98% | 96.55 ± 1.20% | 95.47 ± 1.57% | 95.24 ± 2.56% | 95.73 ± 1.93% |  | 
N[C@H]1CC[C@@H](c2ccc(Cl)c(Cl)c2)c2ccccc21 [N-desmethyl-SER, N-Desmethyl-sertraline] |  |  |  |  |  |  |  | Half-life (t1/2) ([2]; in vivo): 66 to 80 h
CN[C@H]1CC[C@@H](c2ccc(Cl)c(Cl)c2)c2ccccc21 [SER, (1S,4S)-4-(3,4-dichlorophenyl)-N-methyl-1,2,3,4-tetrahydronaphthalen-1-amine] | 92.98 ± 1.35% | 91.04 ± 2.95% | 93.23 ± 0.98% | 90.68 ± 3.92% | 91.15 ± 2.20% | 89.23 ± 4.00% | No significant changes in peak area values | Fraction excreted as metabolites [2]: About 40%; Fraction in plasma bound to proteins [2]: About 98%
CC(C)c1c(CN(C)C2CCC(c3ccc(Cl)c(Cl)c3)c3ccccc32)n(C)n(-c2ccccc2)c1=O (stereo not shown) [SER-MP, sertraline-methylpropyphenazone] | 97.45 ± 0.78% | 95.70 ± 1.76% | 98.76 ± 1.03% | 96.84 ± 0.68% | 98.88 ± 0.80% | 94.99 ± 2.09% | No significant changes in peak area values | Course of serotonin level in the brain after a single oral dose (rat serotonin (ST)): approximately steady level; half-life ([4]; Wistar, rat, plasma, po, 16 mg kg^−1, t1/2 (half-life), rat plasma, oral SER-MP 16.0 mg kg^−1 (equimolar to SER dose), analyte SER-MP or released metabolite): 50 h; Cmax ([4]; Wistar, rat, plasma, po, 16 mg/kg, Cmax (maximum plasma concentration), rat plasma, oral SER-MP 16.0 mg kg^−1 (equimolar to SER dose), analyte SER-MP or released metabolite): 192 ng/mL; Cmax (maximum plasma concentration) [4, 6]: 192.11 ng/mL; Total clearance rate [4, 6]: 4.32 mL/day/kg; t1/2 (half-life) [4, 6]: 49.97 h; Concentration of SER-MP in rat brain [5]: ~100 ng/g
CC(C)c1c(CN[C@H]2CC[C@@H](c3ccc(Cl)c(Cl)c3)c3ccccc32)n(C)n(-c2ccccc2)c1=O [nor-methyl-SER-MP] |  |  |  |  |  |  |  | Time retained in the plasma ([4]; rat plasma after oral SER-MP, major metabolite): 195 h
